Results taken from BindingDB's records for doi:10.1021/jm00045a022 (National Institute of Diabetes and Digestive and Kidney …, 1994).

Assay: Inhibition of [3H](+)-pentazocine binding to sigma receptor of guinea pig brain

| SMILES | Ki [µM] |
| --- | --- |
| COc1cccc([C@]23CCN(C)[C@H](CC(=O)C2)C3)c1 | 0.762 |
| C[N+]1(C)CCC2(c3cccc(O)c3)CC(=O)C(=Cc3ccccc3)C1C2 (configuration not stated) [5-(3-Hydroxy-phenyl)-2,2-dimethyl-7-oxo-8-[1-phenyl-meth-(E)-ylidene]-2-azonia-bicyclo[3.3.1]nonane; iodide] | 5.4 |
